Data as given in DBAASP.
Converted amounts (≈) assume the structure as drawn. Blank lines part the entries; values can stand above or below the compound they belong to.

Key:
Assay in all cases: ≥ marks a high value that may be exact or a test limit, other limits are often not marked, values filed in µg/mL are converted to µM
[1] = test system: Acinetobacter baumannii NM8
[2] = test system: Candida albicans ATCC 90028
[3] = test system: Escherichia coli ATCC 25726
[4] = test system: Klebsiella pneumoniae ATCC 700603
[5] = test system: Pseudomonas aeruginosa ATCC 27853
[6] = test system: Staphylococcus aureus 127/08
[7] = test system: Staphylococcus aureus ATCC 25923
[8] = test system: Stenotrophomonas maltophilia B32/1
[9] = test system: Stenotrophomonas maltophilia B32/4
[10] = test system: Bacillus licheniformis X39
[11] = test system: Candida albicans ATCC 2002
[12] = test system: Enterococcus faecalis 981
[13] = test system: Enterococcus faecium 091299
[14] = test system: Escherichia coli ATCC 25922
[15] = test system: Psychrobacter faecalis X29
[16] = test system: Rhodococcus rhodochrous X15
[17] = test system: Staphylococcus carnosus KHS
[18] = test system: Corynebacterium xerosis C875
Escherichia coli DC2 = test system: Escherichia coli DC2
Escherichia coli UB1005 = test system: Escherichia coli UB1005
[19] = test system: Staphylococcus epidermidis C621

MIC [1]: 6 µM (≈ 23 µg/mL) | MIC [2]: 10 µM (≈ 38.4 µg/mL) | MIC [3]: 5 µM (≈ 19.2 µg/mL) | MIC [4]: 5 µM (≈ 19.2 µg/mL) | MIC [5]: 5 µM (≈ 19.2 µg/mL) | MIC [6]: 6 µM (≈ 23 µg/mL) | MIC [7]: 5 µM (≈ 19.2 µg/mL) | MIC [8]: 6 µM (≈ 23 µg/mL) | MIC [9]: 3 µM (≈ 11.5 µg/mL)
SMILES: CC[C@H](C)[C@@H]1NC(=O)[C@H](CCCCN)NC(=O)[C@@H](NC(=O)[C@H](C)NC(=O)[C@@H](NC(=O)[C@H](CC(C)C)NC(=O)[C@H](CC(=O)O)NC(=O)[C@@H](NC(=O)CNC(=O)[C@H](CC(C)C)NC(=O)[C@H](CCCCN)NC(=O)[C@H](C)NC(=O)[C@H](CC(C)C)NC(=O)[C@H](CC(=O)O)NC(=O)[C@H](CCCCN)NC(=O)CNC(=O)[C@H](CC(C)C)NC(=O)CNC(=O)[C@H](CCCCN)NC(=O)[C@H](CO)NC(=O)[C@H](C)NC(=O)[C@H](Cc2ccccc2)NC(=O)[C@H](CCCCN)NC(=O)[C@H](C)NC(=O)[C@@H](NC(=O)CNC(=O)[C@H](CCCN=C(N)N)NC(=O)[C@H](Cc2ccccc2)NC(=O)[C@@H](NC(=O)[C@H](CO)NC(=O)[C@H](CO)NC(=O)[C@H](Cc2ccccc2)NC(=O)CN)[C@@H](C)CC)C(C)C)C(C)C)C(C)C)CSSC[C@@H](C(=O)O)NC(=O)[C@H](CCC(N)=O)NC(=O)[C@H](CCCCN)NC(=O)[C@H](CO)NC1=O [GFSSIFRGVAKFASKGLGKDLAKLGVDLVACKISKQC]

MIC [10]: 2.4 µM (≈ 6.28 µg/mL) | MIC [11]: 9.5 µM (≈ 24.9 µg/mL) | MIC [12]: ≥ 75 µM | MIC [13]: ≥ 37.5 µM | MIC [14]: 150 µM (≈ 392 µg/mL) | MIC [15]: 9.5 µM (≈ 24.9 µg/mL) | MIC [16]: 1.2 µM (≈ 3.14 µg/mL) | MIC [7]: 2.4 µM (≈ 6.28 µg/mL) | MIC [17]: 19 µM (≈ 49.7 µg/mL)
SMILES: CC[C@H](C)[C@H](NC(=O)[C@H](CC(C)C)NC(=O)[C@@H]1CCCN1C(=O)[C@H](CC(C)C)NC(=O)[C@@H](N)Cc1ccccc1)C(=O)N[C@@H](C)C(=O)N[C@@H](CO)C(=O)N[C@H](C(=O)N[C@@H](C)C(=O)N[C@@H](C)C(=O)N[C@@H](CC(N)=O)C(=O)N[C@@H](CC(C)C)C(=O)N[C@H](C(=O)N1CCC[C@H]1C(=O)N[C@@H](CCCCN)C(=O)N[C@H](C(=O)N[C@@H](Cc1ccccc1)C(=O)N[C@H]1CSSC[C@@H](C(=O)O)NC(=O)[C@H](CCCCN)NC(=O)[C@H](CCCCN)NC(=O)[C@H]([C@@H](C)O)NC(=O)[C@H]([C@@H](C)CC)NC(=O)[C@H](CCCCN)NC1=O)[C@@H](C)CC)C(C)C)C(C)C [FLPLIASVAANLVPKIFCKITKKC]

MIC [1]: ≥ 200 µM | MIC [3]: ≥ 200 µM | MIC [6]: ≥ 200 µM | MIC [7]: > 200 µM | MIC [8]: ≥ 200 µM | MIC [9]: ≥ 200 µM
SMILES: CC[C@H](C)[C@@H]1NC(=O)[C@H](CCCCN)NC(=O)[C@@H](NC(=O)[C@H](C)NC(=O)[C@@H](NC(=O)[C@H](CC(C)C)NC(=O)[C@H](CC(=O)O)NC(=O)[C@@H](NC(=O)CNC(=O)[C@H](CC(C)C)NC(=O)[C@H](CCCCN)NC(=O)[C@H](C)NC(=O)[C@H](CC(C)C)NC(=O)[C@H](CC(=O)O)NC(=O)[C@H](CCCCN)NC(=O)CNC(=O)[C@H](CC(C)C)NC(=O)CNC(=O)[C@@H](N)CCCCN)C(C)C)C(C)C)CSSC[C@@H](C(=O)O)NC(=O)[C@H](CCC(N)=O)NC(=O)[C@H](CCCCN)NC(=O)[C@H](CO)NC1=O [KGLGKDLAKLGVDLVACKISKQC]

MIC [18]: ≥ 32 µM | MIC (Escherichia coli DC2): ≥ 64 µM | MIC (Escherichia coli UB1005): ≥ 64 µM | MIC [19]: ≥ 64 µM
SMILES: C[C@H](NC(=O)[C@H](C)NC(=O)[C@H](C)NC(=O)[C@H](Cc1cnc[nH]1)NC(=O)[C@H](C)NC(=O)[C@H](C)NC(=O)[C@H](C)NC(=O)[C@H](CCCCN)NC(=O)[C@@H](N)CCCCN)C(=O)N[C@@H](C)C(=O)N[C@@H](C)C(=O)N[C@@H](Cc1cnc[nH]1)C(=O)N[C@@H](C)C(=O)N[C@@H](C)C(=O)N[C@@H](Cc1c[nH]c2ccccc12)C(=O)N[C@@H](C)C(=O)N[C@@H](C)C(=O)N[C@@H](Cc1cnc[nH]1)C(=O)N[C@@H](C)C(=O)N[C@@H](C)C(=O)N[C@@H](C)C(=O)N[C@@H](CCCCN)C(=O)N[C@@H](CCCCN)C(=O)N[C@@H](CCCCN)C(=O)N[C@@H](CCCCN)C(N)=O [KKAAAHAAAAAHAAWAAHAAAKKKK]
